Target: T1, CDK2 (Homo sapiens, UniProt P24941)
T1 construct: endogenous in cells; host or cells: MKN1 cells
Assay: CDK2 degradation in MKN1 cells (AlphaLISA)
Type: cell-based
Conditions: 14 h incubation; for DC50: read-out: CDK2 degradation 14 h: Mean external-Abs DC50
Description: Degradation of CDK2 in MKN1 cells was measured using AlphaLISA technology (PerkinElmer ALSU-TCDK2-A10K). MKN1 cells were maintained in RPMI1640 medium containing 10% FBS+1× penn/strep. Cells were seeded in 96-well plates (Corning 3599) at a density of 2e4 cells per well in 80 μL of fresh complete growth medium. Cells were incubated overnight at 37° C., 5% CO2. Compounds were then added to the cell assay plates with a final top concentration of 10 μM in a 1:5 dilution series with a total of 11 doses (0.001 nM-10 μM). The final volume per well was 160 μL and the final DMSO concentration was 0.1%. Additionally, wells containing no cells and only complete growth medium were also maintained on the cell assay plates (‘no cell’ wells) and processed along with experimental wells. After 14 hour-incubation at 37° C., 5% CO2, the medium was removed and the cells were washed once with 100 μL of 1×PBS. Following removal of PBS, 40 μL of 1× Lysis Buffer containing 1× protease and phosphatase inhibitors (Roche 4693116001; Roche 4906837001) were added to each well. The cell assay plate was agitated on a plate shaker at 350 rpm for 10 minutes at room temperature. 10 μL of each cell lysate were transferred to a 384-well plate (PerkinElmer 6007290). 10 μL of control lysates (from PerkinElmer ALSU-TCDK2-A10K kit) were added to separate wells to generate a standard curve. Activation Buffer was prepared by diluting 25-fold in combined Reaction Buffer 1 and Reaction Buffer 2. Acceptor Beads were diluted 50-fold in combined Reaction Buffers. 5 μL of Acceptor Mix were added to each well. The plate was sealed with Topseal-Aadhesive film, covered with foil, and incubated in the dark for 1 hour at room temperature. Under subdued light, the Donor Beads were diluted 50-fold in Dilution Buffer. 5 μL of Donor Mix were added to each well under subdued light. The plate was sealed with Topseal-A adhesive film, covered with foil, and incubated in the dark for 1 hour at room temperature. Under subdued light, the plates were analyzed on an EnVision Microplate Reader (PerkinElmer Model 2009-0030). The average signal from ‘no cell’ wells was subtracted from the signal in experimental wells prior to calculating Alpha signal for test compounds and negative control (0.100 DMSO). The data were analyzed using Xlfit (v5.3. 1.3) and the dose-dependent CDK2 degradation data were fit using a four-parameter logistic model to calculate DC50.

Row | Compound | CDK2 degradation 14 h: Average Dmax % | DC50 [nM]
1 | Cc1cc(S(=O)(=O)C2CC3(CCN(CC4CCN(c5ccc6c(c5)n(C)c(=O)n6C5CCC(=O)NC5=O)CC4)CC3)C2)ccc1Nc1ncc2cc(Cl)c(=O)n(C3CCCC3)c2n1 (stereo not shown) [I-57] | A (A (>75% o)) | < 100
2 | Cc1cc(S(=O)(=O)C2CC3(CCN(CC4CCN(c5cccc6c5n(C)c(=O)n6C5CCC(=O)NC5=O)CC4)CC3)C2)ccc1Nc1ncc2cc(Cl)c(=O)n(C3CCCC3)c2n1 (stereo not shown) [I-58] | A (A (>75% o)) | < 100
3 | Cc1cc(S(=O)(=O)C2CCN(CCC3CCN(c4cccc5c4n(C)c(=O)n5C4CCC(=O)NC4=O)CC3)CC2)ccc1Nc1ncc2cc(Cl)c(=O)n(C3CCCC34CC4)c2n1 (stereo not shown) [I-59] | A (A (>75% o)) | < 100
4 | Cc1cc(S(=O)(=O)C2CCC(CN(C)C3CCN(c4cccc5c4n(C)c(=O)n5C4CCC(=O)NC4=O)CC3)CC2)ccc1Nc1ncc2cc(Cl)c(=O)n(C3CCCC34CC4)c2n1 (stereo not shown) [I-60] | A (A (>75% o)) | < 100
5 | Cc1cc(S(=O)(=O)C2CCN(CCN3CCN(c4cccc5c4n(C)c(=O)n5C4CCC(=O)NC4=O)CC3)CC2)ccc1Nc1ncc(C(F)(F)F)c(-c2cnn(C)c2)n1 (stereo not shown) [I-61] | A (A (>75% o)) | < 100
6 | Cc1cc(S(=O)(=O)[C@H]2CC[C@H](CN(C)C3CCN(c4cccc5c4n(C)c(=O)n5C4CCC(=O)NC4=O)CC3)CC2)ccc1Nc1ncc2ccc(=O)n(C3CCCC3)c2n1 (stereo partly shown) [I-63] | A (A (>75% o)) | < 100
7 | Cc1cc(S(=O)(=O)C2CCN(CCN3CCN(c4cccc5c4n(C)c(=O)n5C4CCC(=O)NC4=O)CC3)CC2)ccc1Nc1ncc2cc(Cl)c(=O)n(C3CCCC3)c2n1 (stereo not shown) [I-64] | A (A (>75% o)) | < 100
8 | Cc1cc(S(=O)(=O)C(C)(C)CCO[C@H]2CC[C@H](CN3CCC(c4ccc5c(c4)n(C)c(=O)n5C4CCC(=O)NC4=O)CC3)CC2)ccc1Nc1ncc2cc(Cl)c(=O)n(C3CCCC3)c2n1 (stereo partly shown) [I-65] | A (A (>75% o)) | < 100
9 | Cc1cc(S(=O)(=O)C2CCC3(CC2)CN(CC2CCN(c4cccc5c4n(C)c(=O)n5C4CCC(=O)NC4=O)CC2)C3)ccc1Nc1ncc2cc(Cl)c(=O)n(C3CCCC3)c2n1 (stereo not shown) [I-66] | A (A (>75% o)) | 100 to 500
10 | Cc1cc(S(=O)(=O)C2CCC3(CC2)CN(CC2CCN(c4ccc5c(c4)n(C)c(=O)n5C4CCC(=O)NC4=O)CC2)C3)ccc1Nc1ncc2cc(Cl)c(=O)n(C3CCCC3)c2n1 (stereo not shown) [I-67] | A (A (>75% o)) | 100 to 500
11 | Cc1cc(S(=O)(=O)CCCO[C@H]2CC[C@H](CN3CCC(c4ccc5c(c4)n(C)c(=O)n5C4CCC(=O)NC4=O)CC3)CC2)ccc1Nc1ncc(C(F)(F)F)c(-c2cnn(C)c2)n1 (stereo partly shown) [I-68] |  | < 100
12 | Cc1cc(S(=O)(=O)C2CC3(CCN(CC4CCN(c5cc(F)cc(NC6CCC(=O)NC6=O)c5)CC4)CC3)C2)ccc1Nc1ncc2cc(Cl)c(=O)n(C3CCCC3)c2n1 (stereo not shown) [I-69] | A (A (>75% o)) | 100 to 500
13 | Cc1cc(S(=O)(=O)C2CC3(CCN(CC4CCN(c5ccc(F)c(NC6CCC(=O)NC6=O)c5)CC4)CC3)C2)ccc1Nc1ncc2cc(Cl)c(=O)n(C3CCCC3)c2n1 (stereo not shown) [I-70] | B (B (>50% -75%)) | > 1000
14 | Cc1cc(S(=O)(=O)C2CC3(CCN(CC4CCN(c5cccc(NC6CCC(=O)NC6=O)c5F)CC4)CC3)C2)ccc1Nc1ncc2cc(Cl)c(=O)n(C3CCCC3)c2n1 (stereo not shown) [I-71] | A (A (>75% o)) | 100 to 500
15 | COc1cc(N2CCC(CN3CCC4(CC3)CC(S(=O)(=O)c3ccc(Nc5ncc6cc(Cl)c(=O)n(C7CCCC7)c6n5)c(C)c3)C4)CC2)ccc1NC1CCC(=O)NC1=O (stereo not shown) [I-72] | A (A (>75% o)) | 100 to 500
16 | Cc1cc(S(=O)(=O)C2CC3(CCN(CC4CCN(c5ccc(OC6CCC(=O)NC6=O)cc5)CC4)CC3)C2)ccc1Nc1ncc2cc(Cl)c(=O)n(C3CCCC3)c2n1 (stereo not shown) [I-73] | A (A (>75% o)) | < 100

— US20240173419A1, “CDK2 DEGRADERS AND USES THEREOF” (Kymera Therapeutics, Inc., priority 2022, published 2024)
